# Earlier results as cited in patent publication US20050180940A1, “Protect against hair loss” (priority 2004, published 2005).
# Tested on: common male-pattern baldness
# Settings: two daily topical applications, person, after 3-4 weeks
substance,measurement,value
sucralfate,Effect on common male-pattern baldness (hair appearance),appearance of hair in the otherwise bald lateral-frontal areas in the scalp
